Structures are written as SMILES. Square brackets hold non-standard residues; d marks the D form. Peptide text beside a SMILES is read from it.

Experimental findings from patent US7220822B2, “CD28 mimetics for blocking T cell mediated immune reactions” (The Ohio State University, priority 2000, dated 2007) are described below.

For test [1], the target named is T1, CD80-Ig (Homo sapiens, UniProt P33681).
T1 construct: extracellular domain of CD80 fused with the constant region of mouse IgG1 heavy chain
T1 sequence (P33681 35-242 limits assumed, other chains not shown): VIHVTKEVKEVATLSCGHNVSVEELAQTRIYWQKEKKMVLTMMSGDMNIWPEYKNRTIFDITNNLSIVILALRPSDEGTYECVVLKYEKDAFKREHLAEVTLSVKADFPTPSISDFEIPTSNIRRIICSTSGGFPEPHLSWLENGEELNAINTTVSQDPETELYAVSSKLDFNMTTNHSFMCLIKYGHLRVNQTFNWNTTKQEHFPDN
Briefly: Direct kinetic analysis of CD28 peptide binding to immobilized CD80-Ig by surface plasmon resonance (BIACORE). The note with it: for maximum response units obtained for binding to CD80-Ig: SPR direct binding; for kd: direct binding; for kon: pH 7.4, direct binding, read-out: ka. The method, then:
Binding experiments were performed by surface plasmon resonance (SPR) on an instrument sold under the trademark BIACORE™ from Pharmacia Biosensor (Uppasala, Sweden).
CD80-Ig (extracellular domain of CD80 fused with the constant region of mouse IgG1 heavy chain) at 35 μg/ml in 10 mM sodium acetate buffer, pH 4.2, was coupled to a research grade CM 5 sensor chip using a standard amine coupling procedure with the following modifications (38). To reduce the immobilization level of the ligand, the surface was activated for 3 (instead of 7) minutes with N-hydroxysuccinamide and […]. […] Following coupling, noncovalently bound ligand was removed by washing twice with 5 mM NaOH.
The analytes were also injected at the same concentration and injection times over an empty flow cell with nothing immobilized.
Data analysis was performed with BIAEVALUATION™ software version 2.1(Pharmacia Biosensor AB). […] Prior to kinetic analysis, data were adjusted to zero baseline level by subtracting the background responses obtained by injection of the analytes through a control flow cell with no ligand immobilized. First, the dissociation rate constant, kd, (units: s^−1) was determined, by fitting experimental data from the buffer flow part of the sensogram to the equation R(t)=R1*e^−kd*(t^0^−t^1^) (1) where t0 is the injection time, R1 is the response level at the start of dissociation time t1 and kd is the dissociation rate constant.
The kd value obtained was used as a constant during the analysis of the injection phase data. Binding data above the noise level was selected by converting the sensogram to a plot of the logarithm of the binding rate vs time (dR/dt vs. time). The ka was determined by nonlinear curve fitting of the following equation R(t)=Req*{1−e^−(k^a^*C+k^d^)*(t) (2) where R(t) is the response at time t, Req is the steady state response level, ka is the association rate constant (units: M^−1s^−1), kd is the dissociation rate constant and C is the concentration of the injected peptide analyte. An offset was added to account for the refractive index differences between the analyte and the running buffer.
After analyzing sensograms obtained from injections of increasing concentrations of peptide analytes or CD28-Ig, the experimental data was analyzed using the BIAsimulation software 2.1. A plot of the logarithm of (dR/dt) against time was calculated from the sensograms, and then the slopes at different concentrations were plotted against the concentrations of the peptide analyte. Different angles obtained of the linear lines represent the variation of affinities, which gives the association rate constant (ka) from the equation ln dR/dt=ln(kaCR max)−KaC+kd)t (4) where dR/dt is the rate of change of the SPR signal, C is the concentration of the analyte, Rmax is the maximum analyte binding capacity in RU and R is the SPR signal in RU at time t. The dissociation rate constant is obtained from the equation Kd=kd/ka (5)

Test [2] deals with T1, CD80-Ig. Nature of the test: Competitive kinetic analysis (SPR): CD28 peptides versus CD28-Ig for binding indirectly immobilized CD80-Ig. The settings on record: for kd: competition with CD28-Ig 3.2 μM. The method, then:
Competitive kinetic analysis was performed as described previously using purified anti-mouse IgG1 Fc (31437zz) (Pierce City, Ill., USA) to indirectly immobilize CD80-Ig (39). […] The binding kinetics of CD28-Ig was assessed by injecting a range of CD28-Ig concentration (187 nM to 12 μM) over immobilized CD80-Ig (324 RU) for 5 min at 10 μl/min. CD80-Ig was regenerated using a 3 min injection of 5 mM NaOH. For competitive kinetic analysis, 100 μl of a 3.2 μM CD28-Ig solution was mixed with 100 μl of EL CD28 or RI CD28 peptides (6.18 μM to 503 μM in HBS-EP) and injected over the surface of CD80-Ig as secondary analyte for 5 min with a flow rate of 10 μl/min. The CD80-Ig surface was regenerated between injections by washing for 3 min with 5 mM NaOH. The mixtures were also injected on an empty flow cell with no protein immobilized, as a control.
In competitive kinetic experiments, the observed response R is the sum of the contributions of R1 and R2 from the two analytes. The binding data was analyzed using the equation R(t)=R1 (CD28-Ig)+R2 (CD28-P) (3) where • R1=Rmaxka1C1/kf−ks{k1(kf−ks)/kf*ks+k1−kf/kf*e^−kf^(t−t0)−k1ks/ks*e^−ks(t−t0)} • R2=RmaxMW1ka2C2/MW2*kf−ks[{k2(kf−ks)}/kf*ks}+(k2−kf/kf)*e^−kf^(t−t0)−(k2−ks/ks)*e^−ks(t−t0) • kf=0.5{ktq+k2+π(ka1−k2)^2+4kf1kCD28PC1C2} • ks=0.5{kt1+k2−π(kt1−k2)^2+4k1k2C1C2} • kt CD28-Ig=ka1C+kd1 • kt2=ka2C2+kd2
When competitive data were analyzed, ka, kd and Rmax values obtained for the interaction between CD80-Ig and CD28-Ig were used as non floating parameters and the rate constants for CD28 peptides were calculated from the injection phase data using the expanded equation 3.
FIGS. 4a and 4b are representative sensograms obtained from the competitive experiments using the CD28-Ig and ELCD28 and RICD28 APR respectively. The top curve is the interaction of CD28-Ig (3.2 μM) alone with the CD80-Ig. The response level gradually goes down as the concentration of the specified CD28 peptide increases. […] However, the dissociation constant varied with varying concentration of EL CD28 peptide mimetic(Table 3).

Setting [3] is: read-out: ka, competition with CD28-Ig 3.2 μM, peptide C 0.125 × 10^5 nM.
[4] abbreviates: read-out: ka, competition with CD28-Ig 3.2 μM, peptide C 0.25 × 10^5 nM.
[5] abbreviates: read-out: ka, competition with CD28-Ig 3.2 μM, peptide C 0.5 × 10^5 nM.
Where [6] appears, read: read-out: ka, competition with CD28-Ig 3.2 μM, peptide C 1 × 10^5 nM.
[7] abbreviates: read-out: ka, competition with CD28-Ig 3.2 μM, peptide C 2 × 10^5 nM.
[8] abbreviates: read-out: ka, competition with CD28-Ig 3.2 μM, peptide C 3 × 10^5 nM.

On to `CC[C@@H](C)[C@@H](NC(C)=O)C(=O)N[C@@H](C(=O)NCC(=O)N[C@H](CC(N)=O)C(=O)N[C@H](CO)C(=O)N[C@H](CCCNC(=N)N)C(=O)N[C@H](CCC(=O)O)C(=O)N[C@H](CC(N)=O)C(=O)N[C@H](CC(=O)O)C(=O)N[C@H](CC(C)C)C(=O)N[C@H](Cc1ccc(O)cc1)C(=O)N1CCC[C@@H]1C(=O)N1CCC[C@@H]1C(=O)N1CCC[C@@H]1C(=O)N[C@H](Cc1ccc(O)cc1)C(=O)N[C@H](CCSC)C(=O)N[C@H](Cc1ccccc1)C(=O)N[C@H](CCC(=O)O)C(=O)N[C@@H](C(=O)N[C@H](CCCCN)C(N)=O)[C@H](C)CC)[C@H](C)O` [RI CD28] (Ac-[dI][dT]G[dN][dS][dR][dE][dN][dD][dL][dY][dP][dP][dP][dY][dM][dF][dE][dI][dK]-NH2), for which, on CD80-Ig [1], the “maximum response units obtained for binding to CD80-Ig” value is listed as 444.2 RU. Also, the kd amounted to 0.205 s⁻¹ at CD80-Ig [1] (C 1.00E+03 nM); 0.183 s⁻¹ on CD80-Ig [1] (C 1.50E+03 nM); 0.146 s⁻¹ on CD80-Ig [1] (C 3.00E+03 nM); 0.228 s⁻¹ at CD80-Ig [1] (C 6.00E+03 nM); 0.177 s⁻¹ at CD80-Ig [2] (peptide C 0.125 × 10^5 nM); 0.0738 s⁻¹ at CD80-Ig [2] (peptide C 0.25 × 10^5 nM). Also, the kd at CD80-Ig [2] (peptide C 0.5 × 10^5 nM) is 0.275 s⁻¹; on CD80-Ig [2] (peptide C 1 × 10^5 nM), 0.142 s⁻¹; at CD80-Ig [2] (peptide C 2 × 10^5 nM) it was 0.0245 s⁻¹; at CD80-Ig [2] (peptide C 3 × 10^5 nM), 0.0206 s⁻¹. Further, the kon on CD80-Ig [1] (C 1.00E+03 nM) came out at 171000 M⁻¹ s⁻¹; on CD80-Ig [1] (C 1.50E+03 nM), 141000 M⁻¹ s⁻¹; at CD80-Ig [1] (C 3.00E+03 nM), 122000 M⁻¹ s⁻¹; on CD80-Ig [1] (C 6.00E+03 nM), 112000 M⁻¹ s⁻¹; on CD80-Ig [2] (setting [3]) it was 105000 M⁻¹ s⁻¹; at CD80-Ig [2] (setting [4]), 54400 M⁻¹ s⁻¹. The kon is 92400 M⁻¹ s⁻¹ on CD80-Ig [2] (setting [5]), 94700 M⁻¹ s⁻¹ at CD80-Ig [2] (setting [6]), 23500 M⁻¹ s⁻¹ on CD80-Ig [2] (setting [7]) and 10700 M⁻¹ s⁻¹ at CD80-Ig [2] (setting [8]).

Take `CC[C@H](C)[C@H](NC(=O)[C@@H](NC(=O)CNC(=O)[C@H](CC(N)=O)NC(=O)[C@H](CO)NC(=O)[C@H](CCCNC(=N)N)NC(=O)[C@H](CCC(=O)O)NC(=O)[C@H](CC(N)=O)NC(=O)[C@H](CC(=O)O)NC(=O)[C@H](CC(C)C)NC(=O)[C@H](Cc1ccc(O)cc1)NC(=O)[C@@H]1CCCN1C(=O)[C@@H]1CCCN1C(=O)[C@@H]1CCCN1C(=O)[C@H](Cc1ccc(O)cc1)NC(=O)[C@H](CCSC)NC(=O)[C@H](Cc1ccccc1)NC(=O)[C@H](CCC(=O)O)NC(=O)[C@@H](NC(=O)[C@H](CCCCN)NC(C)=O)[C@@H](C)CC)[C@@H](C)O)C(N)=O` [EL CD28] (Ac-KIEFMYPPPYLDNERSNGTI-NH2): the “maximum response units obtained for binding to CD80-Ig” value on CD80-Ig [1] was determined as 667.5 RU. Besides, the kd at CD80-Ig [1] (C 1.50E+03 nM) stood at 0.242 s⁻¹; on CD80-Ig [1] (C 3.00E+03 nM) it was 0.214 s⁻¹; at CD80-Ig [1] (C 3.75E+02 nM), 0.399 s⁻¹; at CD80-Ig [1] (C 6.00E+03 nM) it was 0.273 s⁻¹; on CD80-Ig [1] (C 7.50E+02 nM) it was 0.274 s⁻¹; at CD80-Ig [2] (peptide C 0.125 × 10^5 nM) it was 0.101 s⁻¹. Also, the kd at CD80-Ig [2] (peptide C 0.25 × 10^5 nM) came out at 0.0195 s⁻¹; on CD80-Ig [2] (peptide C 0.5 × 10^5 nM), 0.316 s⁻¹; at CD80-Ig [2] (peptide C 1 × 10^5 nM) it was 0.0803 s⁻¹; at CD80-Ig [2] (peptide C 2 × 10^5 nM) it was 0.0862 s⁻¹; at CD80-Ig [2] (peptide C 3 × 10^5 nM), 6.89 s⁻¹. In addition, the kon was determined as 115000 M⁻¹ s⁻¹ at CD80-Ig [1] (C 1.50E+03 nM); 137000 M⁻¹ s⁻¹ at CD80-Ig [1] (C 3.00E+03 nM); 246000 M⁻¹ s⁻¹ at CD80-Ig [1] (C 3.75E+02 nM); 111000 M⁻¹ s⁻¹ on CD80-Ig [1] (C 6.00E+03 nM); 110000 M⁻¹ s⁻¹ at CD80-Ig [1] (C 7.50E+02 nM); 73400 M⁻¹ s⁻¹ at CD80-Ig [2] (setting [3]). The kon on CD80-Ig [2] (setting [4]) turned out to be 3360 M⁻¹ s⁻¹; at CD80-Ig [2] (setting [5]), 63200 M⁻¹ s⁻¹; on CD80-Ig [2] (setting [6]), 31600 M⁻¹ s⁻¹; at CD80-Ig [2] (setting [7]), 55100 M⁻¹ s⁻¹; on CD80-Ig [2] (setting [8]), 2.36e+06 M⁻¹ s⁻¹.
